Consider five compounds from patent US20240174618A1, “SUBSTITUTED (2-HETEROARYLOXYPHENYL)SULFONATES, SALTS THEREOF AND THEIR USE AS HERBICIDAL AGENTS” (Bayer Aktiengesellschaft, priority 2021, published 2024).

Molecules are shown by their SMILES.

What all share (type): in vivo
Test [1] has as its system Abutilon theophrasti (ABUTH). The test is described as follows: A. Herbicidal pre-emergence efficacy, ABUTH. Particulars: scored visually after about 3 weeks vs untreated controls. The method in brief:
(§1)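 Applied before emergence onto covering soil at rates of 1280 g/ha or less, using 600 L/ha spray water with 0.5% additive. Scoring: visual % efficacy after ~3 weeks, greenhouse.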

The subject of another test is Stellaria media (STEME). The test is described as follows: A. Herbicidal pre-emergence efficacy, STEME. The essentials:
as §1

Test [2] relates to Setaria viridis (SETVI). The test is described as follows: B. Herbicidal post-emergence efficacy, SETVI. The essentials:
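First, seeds were sown in sandy loam and grown 2 to 3 weeks under controlled greenhouse conditions. Next, foliage at the one-leaf stage received the formulated compound in water with 0.5% additive (600 L/ha, 1280 g/ha or less). Finally, damage was rated visually after about 3 weeks against untreated plants.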

For test [3], the system named is Amaranthus retroflexus (AMARE). The test is described as follows: C. Herbicidal pre-emergence efficacy, AMARE. Particulars: scored after about 3 weeks. The essentials: (§2)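 Pre-emergence test: formulated compounds sprayed as aqueous suspension or emulsion with 0.5% additive at 600 l/ha onto soil covering sown seeds, at rates corresponding to 320 g/ha or less. After about 3 weeks in greenhouse, efficacy scored visually as percent versus untreated controls (100% = plants dead).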

For test [4], the system named is Setaria viridis (SETVI). The test is described as follows: C. Herbicidal pre-emergence efficacy, SETVI. To be noted: scored after about 3 weeks. The method in brief: as §2
The subject of test [5] is Echinochloa crus-galli (ECHCG). The test is described as follows: E. Herbicidal post-emergence efficacy, ECHCG. The essentials: (§3)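 Compounds applied at 320 g/ha or less as a foliar spray (600 l/ha, 0.5% additive) to one-leaf-stage greenhouse plants grown in sandy loam. Damage is visually scored in percent relative to untreated plants after about 3 weeks.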
For test [6], the system named is Setaria viridis (SETVI). The test is described as follows: E. Herbicidal post-emergence efficacy, SETVI. The essentials: as §3
The next test deals with Viola tricolor (VIOTR). The test is described as follows: E. Herbicidal post-emergence efficacy, VIOTR. The method in brief:
as §3

As for `O=S(=O)(CCC1CC1)Oc1c(F)cccc1Oc1ncc(Cl)cn1` [Example I-55], the “Pre-emergence efficacy against ABUTH” value in test [1] (1280 g/ha) came out at 100%. Moreover, the “Pre-emergence efficacy against STEME” value in the test on Stellaria media (STEME) (dosage 320 g/ha) and with Stellaria media (STEME) (dosage 1280 g/ha) was 100% throughout. The “Post-emergence efficacy against SETVI” value in the test with Setaria viridis (SETVI) [2] (320 g/ha) and in the test on Setaria viridis (SETVI) [2] (1280 g/ha) was 90% in each case. For the same compound, the “Pre-emergence efficacy against AMARE” value in test [3] (80 g/ha) and in test [3] (320 g/ha) was 100% in each case. Also, the “Pre-emergence efficacy against SETVI” value with Setaria viridis (SETVI) [4] (80 g/ha) worked out at 80%; in the test on Setaria viridis (SETVI) [4] (320 g/ha), 90%. For the same compound, the entries for the “Post-emergence efficacy against ECHCG in %” value in test [5] (application rate 80 g/ha) and in test [5] (application rate 320 g/ha) were 90% and 100%, respectively. The “Post-emergence efficacy against SETVI in %” value in the test on Setaria viridis (SETVI) [6] (application rate 80 g/ha) amounted to 80%; with Setaria viridis (SETVI) [6] (application rate 320 g/ha), 90%. In addition, the “Post-emergence efficacy against VIOTR in %” value in the test on Viola tricolor (VIOTR) (application rate 320 g/ha) was found to be 80%.
Regarding `O=S(=O)(CC1CC(F)(F)C1)Oc1c(F)cccc1Oc1ncc(Cl)cn1` [Example I-53], the “Pre-emergence efficacy against ABUTH” value in test [1] (80 g/ha), in test [1] (320 g/ha) and in test [1] (1280 g/ha) was 100% in each case. For the same compound, the “Pre-emergence efficacy against STEME” value in the test with Stellaria media (STEME) (dosage 80 g/ha), in the test with Stellaria media (STEME) (dosage 320 g/ha) and with Stellaria media (STEME) (dosage 1280 g/ha) was 100% each time. Besides, the “Post-emergence efficacy against SETVI” value in the test with Setaria viridis (SETVI) [2] (320 g/ha) and in the test with Setaria viridis (SETVI) [2] (1280 g/ha) was 90% each time. Besides, the “Pre-emergence efficacy against AMARE” value in test [3] (80 g/ha) and in test [3] (320 g/ha) was 100% throughout. The “Pre-emergence efficacy against SETVI” value in the test with Setaria viridis (SETVI) [4] (80 g/ha) and with Setaria viridis (SETVI) [4] (320 g/ha) was 100% in each case. The “Post-emergence efficacy against ECHCG in %” value in test [5] (application rate 80 g/ha) and in test [5] (application rate 320 g/ha) was 100% in each case. The “Post-emergence efficacy against SETVI in %” value in the test with Setaria viridis (SETVI) [6] (application rate 80 g/ha) and with Setaria viridis (SETVI) [6] (application rate 320 g/ha) was 100% throughout. In addition, the “Post-emergence efficacy against VIOTR in %” value in the test on Viola tricolor (VIOTR) (application rate 80 g/ha) and with Viola tricolor (VIOTR) (application rate 320 g/ha) was 100% throughout.
Consider `O=S(=O)(CCC(F)(F)F)Oc1c(F)cccc1Oc1ncc(Cl)cn1` [Example I-48], for which the “Pre-emergence efficacy against ABUTH” value came out at 90% in test [1] (80 g/ha), 100% in test [1] (320 g/ha) and 100% in test [1] (1280 g/ha). For the same compound, the “Pre-emergence efficacy against STEME” value with Stellaria media (STEME) (dosage 80 g/ha) worked out at 90%; in the test with Stellaria media (STEME) (dosage 320 g/ha), 100%; in the test with Stellaria media (STEME) (dosage 1280 g/ha), 100%. Besides, the “Post-emergence efficacy against SETVI” value in the test with Setaria viridis (SETVI) [2] (320 g/ha) and in the test on Setaria viridis (SETVI) [2] (1280 g/ha) was 90% each time. The “Pre-emergence efficacy against AMARE” value in test [3] (80 g/ha) and in test [3] (320 g/ha) was 100% each time. Also, the “Pre-emergence efficacy against SETVI” value with Setaria viridis (SETVI) [4] (80 g/ha) and with Setaria viridis (SETVI) [4] (320 g/ha) was 100% in each case. Also, the “Post-emergence efficacy against ECHCG in %” value in test [5] (application rate 80 g/ha) and in test [5] (application rate 320 g/ha) was 100% throughout. In addition, the “Post-emergence efficacy against SETVI in %” value in the test with Setaria viridis (SETVI) [6] (application rate 80 g/ha) and in the test on Setaria viridis (SETVI) [6] (application rate 320 g/ha) was 100% in each case. In addition, the “Post-emergence efficacy against VIOTR in %” value with Viola tricolor (VIOTR) (application rate 80 g/ha) and with Viola tricolor (VIOTR) (application rate 320 g/ha) was 100% each time.
For `O=S(=O)(CCC(F)(F)F)Oc1c(F)cccc1Oc1ncc(Br)cn1` [Example I-40], the “Pre-emergence efficacy against ABUTH” value in test [1] (80 g/ha), in test [1] (320 g/ha) and in test [1] (1280 g/ha) was 100% throughout. In addition, the “Pre-emergence efficacy against STEME” value with Stellaria media (STEME) (dosage 320 g/ha) and with Stellaria media (STEME) (dosage 1280 g/ha) was 100% each time. Also, the “Post-emergence efficacy against SETVI” value with Setaria viridis (SETVI) [2] (320 g/ha) and in the test with Setaria viridis (SETVI) [2] (1280 g/ha) was 90% in each case. For the same compound, the “Pre-emergence efficacy against AMARE” value in test [3] (80 g/ha) and in test [3] (320 g/ha) was 100% each time. For the same compound, the “Pre-emergence efficacy against SETVI” value with Setaria viridis (SETVI) [4] (80 g/ha) and in the test with Setaria viridis (SETVI) [4] (320 g/ha) was 100% throughout. For the same compound, the “Post-emergence efficacy against ECHCG in %” value in test [5] (application rate 80 g/ha) and in test [5] (application rate 320 g/ha) was 100% throughout. Moreover, the “Post-emergence efficacy against SETVI in %” value with Setaria viridis (SETVI) [6] (application rate 80 g/ha) and in the test on Setaria viridis (SETVI) [6] (application rate 320 g/ha) was 100% throughout. Further, the “Post-emergence efficacy against VIOTR in %” value with Viola tricolor (VIOTR) (application rate 80 g/ha) and with Viola tricolor (VIOTR) (application rate 320 g/ha) was 100% in each case.
As for `O=S(=O)(CCC(F)(F)F)Oc1c(Cl)cccc1Oc1ncc(Cl)cn1` [Example I-38], the “Pre-emergence efficacy against ABUTH” value in test [1] (80 g/ha), in test [1] (320 g/ha) and in test [1] (1280 g/ha) was 100% in each case. In addition, the “Pre-emergence efficacy against STEME” value in the test on Stellaria media (STEME) (dosage 80 g/ha), with Stellaria media (STEME) (dosage 320 g/ha) and in the test on Stellaria media (STEME) (dosage 1280 g/ha) was 100% each time. In addition, the “Post-emergence efficacy against SETVI” value in the test on Setaria viridis (SETVI) [2] (1280 g/ha) came out at 90%. The “Pre-emergence efficacy against AMARE” value in test [3] (80 g/ha) and in test [3] (320 g/ha) was 100% in each case. In addition, the “Pre-emergence efficacy against SETVI” value in the test on Setaria viridis (SETVI) [4] (80 g/ha) and in the test on Setaria viridis (SETVI) [4] (320 g/ha) was 100% in each case. Further, the “Post-emergence efficacy against ECHCG in %” value in test [5] (application rate 320 g/ha) was found to be 100%. Further, the “Post-emergence efficacy against SETVI in %” value in the test on Setaria viridis (SETVI) [6] (application rate 80 g/ha) and with Setaria viridis (SETVI) [6] (application rate 320 g/ha) was 100% throughout. Further, the “Post-emergence efficacy against VIOTR in %” value in the test on Viola tricolor (VIOTR) (application rate 80 g/ha) and with Viola tricolor (VIOTR) (application rate 320 g/ha) was 100% each time.
